# Data taken from paper PMC8599513, “Efficient biosynthesis of nucleoside cytokinin angustmycin A containing an unusual sugar system” (Nature Communications, 2021).
# What was measured:
# AgmA = target: T1, AgmA (Streptomyces angustmyceticus, UniProt A0A5J4L869); experiment: HPLC and LC-MS, adenine release; type: biochemical; conditions: 50 mM Tris-Cl pH 7.5, 1 mM substrate, 30 °C, 2 h
# T1 construct: gene San01_08890; recombinant, overexpressed in and purified from E. coli BL21(DE3)
# T1 sequence (A0A5J4L869 1-193): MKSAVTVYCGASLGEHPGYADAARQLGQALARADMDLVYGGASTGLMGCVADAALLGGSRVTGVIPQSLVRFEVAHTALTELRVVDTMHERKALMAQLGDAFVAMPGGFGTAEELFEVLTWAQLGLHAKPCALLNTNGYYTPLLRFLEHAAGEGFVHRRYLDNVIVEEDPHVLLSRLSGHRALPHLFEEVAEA
# AgmE = target: T2, AgmE (Streptomyces angustmyceticus, UniProt A0A5J4LCM7); experiment: HPLC and LC-MS, AMP formation; type: biochemical; conditions: 1 mM Mg2+, 50 mM PBS pH 7.5, 30 °C
# T2 construct: gene San01_08850; recombinant, overexpressed in and purified from E. coli BL21(DE3)
# T2 sequence (A0A5J4LCM7 1-178): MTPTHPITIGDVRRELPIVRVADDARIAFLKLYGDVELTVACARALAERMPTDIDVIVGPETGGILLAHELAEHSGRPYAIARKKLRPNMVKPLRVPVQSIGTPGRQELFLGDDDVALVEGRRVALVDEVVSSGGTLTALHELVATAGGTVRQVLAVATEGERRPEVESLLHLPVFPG
# AgmF = system: T3, AgmF; experiment: HPLC dehydration assay; type: biochemical, Streptomyces angustmyceticus; conditions: dehydration to angustmycin A; kinetic assay conditions only in supplement
# T3 construct: recombinant, overexpressed in and purified from E. coli BL21(DE3)
smiles,measurement,setting,value
Nc1ncnc2c1ncn2[C@@H]1O[C@H](COP(=O)(O)O)[C@@H](O)[C@H]1O [AMP],"HPLC and LC-MS, adenine release",AgmA,AgmA is capable of consuming AMP/dAMP as a substrate
Nc1ncnc2[nH]cnc12 [adenine],"HPLC and LC-MS, AMP formation","AgmE; co-substrate PRPP 1 mM, methods print adenosine instead of adenine",assayed in vitro with the substrates adenine and phosphoribosyl pyrophosphate (PRPP)
Nc1ncnc2c1ncn2[C@H]1C[C@H](O)[C@@H](COP(=O)(O)O)O1 [dAMP],"HPLC and LC-MS, adenine release",AgmA,AgmA is capable of consuming AMP/dAMP as a substrate
"Nc1ncnc2c1ncn2[C@]1(CO)O[C@H](CO)[C@@H](O)[C@H]1O [compound 2, angustmycin C]",Km,AgmF,1380 ± 121 µM
O=P(O)(O)OC[C@H]1O[C@H](OP(=O)(O)OP(=O)(O)O)[C@H](O)[C@@H]1O [PRPP],"HPLC and LC-MS, AMP formation",AgmE; co-substrate adenine,assayed in vitro with the substrates adenine and phosphoribosyl pyrophosphate (PRPP)
